The target of data set [1] is T1, OAT3 (Homo sapiens, UniProt Q8TCC7).
T1 sequence (Q8TCC7 1-542): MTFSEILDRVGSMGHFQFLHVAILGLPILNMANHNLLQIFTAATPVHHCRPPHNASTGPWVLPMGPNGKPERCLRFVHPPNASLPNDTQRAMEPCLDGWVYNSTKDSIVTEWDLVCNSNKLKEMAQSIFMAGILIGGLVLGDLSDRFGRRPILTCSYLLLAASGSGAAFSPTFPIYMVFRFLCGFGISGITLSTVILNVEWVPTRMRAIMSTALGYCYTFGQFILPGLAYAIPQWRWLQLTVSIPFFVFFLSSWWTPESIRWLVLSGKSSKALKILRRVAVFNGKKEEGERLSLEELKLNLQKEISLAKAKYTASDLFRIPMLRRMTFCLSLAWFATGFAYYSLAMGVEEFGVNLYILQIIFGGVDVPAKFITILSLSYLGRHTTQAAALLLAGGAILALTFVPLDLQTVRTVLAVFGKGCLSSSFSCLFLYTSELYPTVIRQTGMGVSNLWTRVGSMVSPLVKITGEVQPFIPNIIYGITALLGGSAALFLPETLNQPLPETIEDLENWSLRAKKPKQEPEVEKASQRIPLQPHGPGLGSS
Set-up: host or cells: ciPTEC (human conditionally immortalized proximal tubule epithelial cells), lentiviral transduction. The following applies: substrate sitagliptin, CHO-OAT3; read-out: IC50 (literature); cited from earlier work.

Data set [2] concerns the target T1, OAT3. The experiment in a line: Inhibition of OAT-mediated fluorescein uptake in ciPTEC-OAT3. On the procedure: (§1) All chemicals were obtained from Sigma, unless stated otherwise. Uptake was stopped by washing three times with ice-cold HBSS (4°C).
(§2) Non-linear regression with variable slope constraining the top to 100% was used to fit the data after background subtraction with GraphPad Prism. Statistics was performed by two-way ANOVA (two-tailed, α = 0.05) using GraphPad Prism as well. All data is presented as mean ± SEM of at least three separate experiments (n = 3) performed in triplicate, unless stated otherwise.

The next data set addresses T2, OAT1 (Homo sapiens, UniProt Q4U2R8).
T2 sequence (Q4U2R8 1-563): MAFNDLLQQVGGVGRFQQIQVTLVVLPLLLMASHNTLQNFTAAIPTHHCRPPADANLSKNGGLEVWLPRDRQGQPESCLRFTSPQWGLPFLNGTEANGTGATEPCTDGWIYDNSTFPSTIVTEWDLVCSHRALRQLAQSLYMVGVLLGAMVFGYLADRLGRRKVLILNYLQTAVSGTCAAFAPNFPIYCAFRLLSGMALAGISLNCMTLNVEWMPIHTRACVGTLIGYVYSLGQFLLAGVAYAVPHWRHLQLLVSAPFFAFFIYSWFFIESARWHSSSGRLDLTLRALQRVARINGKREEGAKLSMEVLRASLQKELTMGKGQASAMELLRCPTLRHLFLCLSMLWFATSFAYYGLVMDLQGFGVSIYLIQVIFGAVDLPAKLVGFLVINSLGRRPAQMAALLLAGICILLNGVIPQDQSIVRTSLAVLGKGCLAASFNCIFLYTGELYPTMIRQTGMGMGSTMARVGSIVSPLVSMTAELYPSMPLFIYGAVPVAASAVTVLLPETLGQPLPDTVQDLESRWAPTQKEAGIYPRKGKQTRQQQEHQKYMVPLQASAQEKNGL
The experiment in a line: Inhibition of OAT-mediated fluorescein uptake in ciPTEC-OAT1. Set-up: host or cells: ciPTEC (human conditionally immortalized proximal tubule epithelial cells), lentiviral transduction. In kind it is cell-based. On the procedure:
as §1, §2

In a further data set the target is OCT2 (Homo sapiens, UniProt O15244). The following applies: ASP+ 1 µM, 60 min, HBSS 37°C; similar IC50 in ciPTEC parent, ciPTEC-OAT1, ciPTEC-OAT3 (p>0.05). On the procedure:
Supplementary Figure S1. […] ASP+ uptake (1 […]
µM) by ciPTEC parent, ciPTEC-OAT1 and ciPTEC-OAT3 when co-incubated with OCT2-substrate […]
The lines represent the fit according to a one-site competition model. Values are expressed as ±SEM, (ciPTEC, n=3; ciPTEC- […]
OAT1, n=4; ciPTEC-OAT3, n=2.
(1 picture or pasted object on this page, not shown here)

The target in data set [3] is T1, OAT3. The following applies: substrate estrone sulfate, Xenopus-OAT3; read-out: IC50 (literature); cited from earlier work.
A further data set relates to ciPTEC-OAT1. The experiment in a line: MTT viability assay, ciPTEC-OAT1. In kind it is cell-based, human. (In general: Tetrazolium assays rely on reduction of a dye to a coloured formazan, in cell work by metabolically active cells.)
For a further data set, the system named is ciPTEC parent. Description: MTT viability assay, ciPTEC parent. The following applies: 50 μM (10× Cmax) with MK571 and KO143. Type of data set: cell-based, human. On the procedure:
Briefly, monolayers of ciPTEC (96-wells) were exposed to antivirals in serum-free medium (SFM) on day 6 of maturation.
as §2

Details of data set [4]: method as in PMID 19445515. The following applies: cited from earlier work.
In a further data set the test system is ciPTEC-OAT3. The experiment in a line: MTT viability assay, ciPTEC-OAT3. In kind it is cell-based, human. On the procedure: Cell toxicity was analyzed further in presence of MRP and BCRP efflux inhibitors MK571 (5 μM) and KO143 (10 μM).
For data set [5] the following is noted: plasma, maximal free plasma concentration, 47 (zidovudine), cited from earlier work.

We go through two compounds from publication PMC4779111, “A Human Renal Proximal Tubule Cell Line with Stable Organic Anion Transporter 1 and 3 Expression Predictive for Antiviral-Induced Toxicity” (The AAPS Journal, 2016).

As usually defined, the IC50 is the point on the concentration scale where inhibition reaches its midpoint. The Cmax is the maximum level reached in the sampled fluid or tissue.

Read-outs that look alike come from different tables or passages of the source.

Chain of OCT2 (O15244 whole entry): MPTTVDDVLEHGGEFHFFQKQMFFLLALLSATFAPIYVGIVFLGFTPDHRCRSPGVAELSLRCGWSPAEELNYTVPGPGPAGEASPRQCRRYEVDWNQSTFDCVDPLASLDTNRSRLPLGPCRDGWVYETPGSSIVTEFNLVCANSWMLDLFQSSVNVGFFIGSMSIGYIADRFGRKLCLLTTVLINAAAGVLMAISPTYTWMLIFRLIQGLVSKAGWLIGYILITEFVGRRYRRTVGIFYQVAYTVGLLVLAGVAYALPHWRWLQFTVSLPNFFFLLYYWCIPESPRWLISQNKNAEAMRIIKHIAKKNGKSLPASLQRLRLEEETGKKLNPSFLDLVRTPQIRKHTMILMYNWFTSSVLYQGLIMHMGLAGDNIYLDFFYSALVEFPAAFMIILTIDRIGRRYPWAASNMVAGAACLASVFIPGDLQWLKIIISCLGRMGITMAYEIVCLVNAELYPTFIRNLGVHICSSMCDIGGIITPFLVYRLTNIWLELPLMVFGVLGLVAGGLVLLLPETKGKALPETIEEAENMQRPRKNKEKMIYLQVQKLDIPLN

With `CN/C(=N/CCSCc1nc[nH]c1C)NC#N` [Cimetidine, cimetidine], the IC50 on OAT3 [1] was 79 µM; against OAT3 [2] it was 215 ± 162 µM; on OAT3 [3], 53 µM. For the same compound, the IC50 at 10 min against OAT1 (human, ciPTEC-OAT1 cells (mature monolayers), probe fluorescein (1 μM)) amounted to 654 ± 291 µM. Besides, the “Inhibition of ASP+ uptake at OCT2” value at OCT2 was “significant inhibition”.
For `Cc1cn([C@H]2C[C@H](N=[N+]=[N-])[C@@H](CO)O2)c(=O)[nH]c1=O` [Zidovudine, zidovudine], the IC50 against OAT3 [2] came out at 21 ± 4 µM; against OAT1, 14 ± 7 µM. Besides, the “Cell viability in presence of efflux inhibitors” value in the data set with ciPTEC-OAT1 (ciPTEC-OAT1, 50 μM (10× Cmax) with MK571 and KO143) is on record as “did not affect cell viability”; in the data set on ciPTEC parent, “did not affect cell viability”; with ciPTEC-OAT3 (ciPTEC-OAT3, 50 μM (10× Cmax) with MK571 and KO143), “did not affect cell viability”. For the same compound, the “Cell viability (MTT), concentration and time dependence” value with ciPTEC-OAT1 (ciPTEC-OAT1, 24, 48 and 72 h) is listed as “did not affect cell viability”; with ciPTEC-OAT3 (ciPTEC-OAT3, 24, 48 and 72 h), “did not affect cell viability”. The “Fraction eliminated via the urine without metabolic alterations” value in data set [4] is 23%. The Cmax is 5.5 µM in data set [5] (first-listed (lower) value per drug, ref 40 (adefovir), 42 (cidofovir), 45 (tenofovir)) and 6.6 µM in [5] (second-listed (higher) value per drug, ref 41 (adefovir), 43 (cidofovir), 46 (tenofovir)).
